Residues, ends and D or L forms follow the SMILES beside them. *: point of attachment. Cbz = O=C(OCc1ccccc1)*
Experiments:
proteasome = test: Proximity labeling (BioID) with PSMA4-miniTurbo, streptavidin enrichment and DIA mass spectrometry, with proteasome inhibition; format: cell-based, Homo sapiens
Method: For the “BioID” experiments, HEK293T lines were seeded at the density of approximately 1.6×10^4 cells/cm2 and incubated for 24 hours to allow cell attachment to the culture dish. The expression of BirA* or miniTurbo fusion proteins were induced by a single addition of tetracycline stock (solved in ethanol) exposing the cells to its final concentration of […] in total for 4 days. 2 hours (miniTurbo lines) or 24 hours (BirA* lines) prior to cell harvesting, 50 μM biotin was added to the culture media. For identification of proteasome substrates, PSMA4-miniTurbo or miniTurbo expressing cells were treated with 20 μM MG132 for 4 hours and/or 10 μM KB02-JQ1 for 12 hours. Upon treatment, cells were washed 3×times with PBS and harvested by trypsinization. For each sample, a pellet corresponding to 20 million cells was collected and snap-frozen in liquid nitrogen.
Cell pellets were thawed on ice were resuspended in 4.75 ml of BioID lysis buffer (50 mM Tris pH 7.5; 150 mM NaCl; 1 mM EDTA; 1 mM EGTA; 1% (v/v) Triton X-100; 1 mg/ml aprotinin; 0.5 mg/ml leupeptin; 250 U turbonuclease; 0.1% (w/v) SDS), followed by 1 hour incubation in the rotator mixer (STARLAB RM Multi-1) (15×rpm) at 4° C. to aid the lysis. Samples were then briefly sonicated in a Bioruptor Plus for 5 cycles (30 s ON/30 s OFF) at high setting and afterwards centrifuged at 20817×g, for 30 minutes at 4° C. to remove any debris.
Streptavidin coated Sepharose beads were acetylated by two successive treatments with 10 mM Sulfo-NHS-Acetate for 30 minutes at room temperature. The reaction was then quenched with 1 M Tris pH 7.5 (1:10 v/v) and then the beads were washed with 1×PBS and centrifuged at 2000×g for 1 minute at room temperature. This washing was performed 3 times in total. Cleared lysates were transferred to new tubes, 50 μl of acetylated beads added, and samples were incubated for 3 hours on the rotator (15×rpm) at 4° C. This was followed by centrifugation at 2000×g for 5 minutes at 4° C. and removal of 4.5 ml of the supernatant from each sample. […]

[1] = system: proteasome chymotrypsin-like activity; test: Proteasome activity assay (LLVY-AMC cleavage) on cell lysates; format: cell-based, Homo sapiens; conditions: lysates of HEK293T lines expressing BirA* fusion proteins or BirA* control; 24 hours with vs without tetracycline
Method: Proteasome activity assay: The proteasome activity assay (PAA) was performed using the 20S proteasome activity assay kit (Millipore, APT280) following the manufacturer instructions. In short, cell pellets were thawed in ice-cold lysis buffer (50 mM HEPES pH 7.5; 5 mM EDTA; 150 mM NaCl; 1% (v/v) Triton X-100; 2 mM ATP) and left on ice for 30 minutes with short vortex steps (VWR international, VWR/444-1372) every 10 minutes. Samples were centrifuged at 20817×g, for 15 minutes at 4° C. to remove any debris. For protein amount estimation the EZQ Protein Quantitation Kit (Invitrogen, R33200) was used. 50 μg of protein extract were incubated with fluorophore-linked peptide substrate (LLVY-7-amino-4-methylcoumarin, AMC) for 60 minutes at 37° C. Proteasome activity was measured by quantification of fluorescent units from cleaved AMC at 380/460 nm using a microplate reader m1000 (Tecan).

Row | SMILES | impact on the biotinylated proteins quantified by mass spectrometry (principal component analysis) (proteasome; HEK293T PSMA4-miniTurbo, 20 μM MG132 4 hours) | number of proteins enriched relative to miniTurbo control only in presence of MG132 (potential proteasome substrates) (proteasome; HEK293T PSMA4-miniTurbo, 20 μM MG132 4 hours, log 2 fold change>1 and Q value<0.05) [proteins] | enrichment of proteasome activators and ubiquitin in streptavidin pull downs, MG132-treated versus control cells (proteasome; HEK293T cells expressing PSMA4-miniTurbo, 20 μM MG132 for 4 hours, biotin 2 hours) | reduction of proteasome activity following addition of tetracycline [1]
1 | CC(C)C[C@@H](C=O)NC(=O)[C@H](CC(C)C)NC(=O)[C@H](CC(C)C)NC(=O)OCc1ccccc1 [MG132] (Cbz-Leu-Leu-Leu-aldehyde) | clear impact | 296 | prominent enrichment of proteasome activators and ubiquitin | 
2 | CN(C)[C@@H]1C(O)=C(C(N)=O)C(=O)[C@@]2(O)C(O)=C3C(=O)c4c(O)cccc4[C@@](C)(O)[C@H]3C[C@@H]12 [tetracycline] |  |  |  | 15-20%

— patent US20260243776A1, “A METHOD FOR DETECTING PROTEIN TARGETS OF AN ENZYME USING A BIOTIN LIGASE” (Leibniz-Institut für Alternsforschung - …, priority 2022, published 2026)
